Measurements published in patent publication US20100324138A1, “Lipoxin A4 Protection for Retinal Cells” (priority 2007, published 2010).
Where two headings read alike, the source gives them in different places.

Columns and labels:
[1] = system: ARPE-19 cells; assay: Lipoxins and NPD1 combined effect on apoptosis induced by oxidative stress in RPE cells; assay type: cell-based, human; details: NPD1 30 nM with lipoxin A4 or its analog 100 nM, 14 h; FIG. 2
Procedure: The growth of RPE cells, serum starvation, and induction of apoptosis were the same as described above in Example 1 and in Mukherjee et al., 2007. To test for a synergistic effect between lipoxin A4 and […] (NPD1), the oxidative-stressed RPE cells were treated with NPD1 (30 nM) and with lipoxin A4 or its analog (100 nM) for 14 h as indicated in FIG. 2. The percent apoptosis is expressed as described above in Example 1 as a percentage of the Hoechst positive cells.

[2] = system: COX-2 promoter construct; assay: Interleukin-1β induced COX-2 promoter construct (huCOX-2-LUC) luciferase assay in RPE cells; assay type: cell-based, human; details: IL-1β 10 ng/ml, 14 h
Procedure: COX-2 is a proinflammatory protein that participates in RPE cell injury. ARPE-19 cells were grown over night in six well plates and then transfected with huCOX-2-LUC (−830) promoter construct (5 ug) for 24 h. Transfected cells were serum starved for 8 h before the addition of IL-1β (10 ng/ml). IL-1β treated cells were challenged with 100 nM, 500 nM, and 1000 nM concentrations of lipoxin A4 and lipoxin A4 epimer 15 for 14 h. Cells were then harvested, and luciferase assays were performed using luciferin as substrate.

[3] = system: ARPE-19 cells; assay: Inhibition of apoptosis induced by oxidative stress (TNF-α/H2O2) in RPE cells, Hoechst staining; assay type: cell-based, human; details: TNF-α 10 ng/ml + H2O2 600 uM, 14 h, FIG. 1
Procedure: (§1) ARPE-19 cells (L. M. Hjelmeland, ATCC #CRL-2302) were grown and maintained in DMEM-F12 medium supplemented with 10% FBS and incubated at 37° C. with a constant supply of 5% CO2. ARPE-19 cells are spontaneously transformed human retinal pigment epithelial cells that conserve cellular biological and functional properties. All chemicals were purchased from Sigma Chemical Co. (St. Louis, Mo.) unless otherwise indicated.
ARPE-19 cells growing in DMEM-F-12 medium for 72 h were serum starved for 8 h before induction of oxidative stress, as described in P. K. Mukherjee et al., “Photoreceptor outer segment phagocytosis attenuates oxidative stress-induced apoptosis with concomitant neuroportectin D1 synthesis,” PNAS, vol. 104, pp. 13158-13163 (2007). Oxidative stress was introduced by TNF-α (10 ng/ml) and H2O2 (600 uM) for 14 h and challenged with different concentrations of either lipoxin-A4 or lipoxin A4 epimer 15 (10 nM, 50 nM, and 100 nM; Calbiochem, Madison, Wis.), as indicated in FIG. 1. In initial experiments to test whether lipoxin caused stress, lipoxin A4 and lipoxin A4 epimer 15 were added to RPE cells in which oxidative stress had not been induced with TNF-α or H2O2. The apoptotic cell death was scored by Hoechst staining, as described in Mukherjee et al., 2007. The results were expressed as percentage inhibition of apoptosis by counting the Hoechst positive cells, and are shown in FIG. 1.

[4] = system: ARPE-19 cells; assay: Apoptosis in RPE cells in which oxidative stress had not been induced (test whether lipoxin caused stress), Hoechst staining; assay type: cell-based
Procedure: as §1
ARPE-19 cells growing in DMEM-F-12 medium for 72 h were serum starved for 8 h before induction of oxidative stress, as described in P. K. Mukherjee et al., “Photoreceptor outer segment phagocytosis attenuates oxidative stress-induced apoptosis with concomitant neuroportectin D1 synthesis,” PNAS, vol. 104, pp. 13158-13163 (2007). Oxidative stress was introduced by TNF-α (10 ng/ml) and H2O2 (600 uM) for 14 h and challenged with different concentrations of either lipoxin-A4 or lipoxin A4 epimer 15 (10 nM, 50 nM, and 100 nM; Calbiochem, Madison, Wis.), as indicated in FIG. 1. […] The apoptotic cell death was scored by Hoechst staining, as described in Mukherjee et al., 2007. The results were expressed as percentage inhibition of apoptosis by counting the Hoechst positive cells, and are shown in FIG. 1.

[5] = 100, 500, 1000 nM, luciferase, FIG. 3

| Compound | effect of lipoxin combined with NPD1 on oxidative stress-induced apoptosis [1] | inhibition of IL-1β mediated induction of COX-2 promoter construct ([2]; 100 nM (lowest inhibition)) | inhibition of IL-1β mediated induction of COX-2 promoter construct ([2]; 1000 nM) | inhibition of IL-1β mediated induction of COX-2 promoter construct [2, 5] | inhibition of apoptosis in RPE cells under oxidative stress ([3]; 100 nM) | inhibition of apoptosis in RPE cells under oxidative stress ([3]; 10, 50, 100 nM) | induction of apoptosis in RPE cells [4] | induction of apoptosis in RPE cells ([4]; no oxidative stress (no TNF-α or H2O2), Hoechst positive cells, FIG. 1) |
| --- | --- | --- | --- | --- | --- | --- | --- | --- |
| CC/C=C\C[C@H](O)\C=C/C=C/C=C/[C@H](O)C/C=C\C/C=C\CCC(=O)O [NPD1, neuroprotectin D1, reference compound] | additive |  |  |  |  |  |  |  |
| CCCCC[C@H](O)/C=C/C=C\C=C\C=C\[C@@H](O)[C@@H](O)CCCC(=O)O [lipoxin A4] | additive | 35% | highest | inhibit IL-1β mediated induction of COX-2 promoter construct in RPE cells in a concentration-dependent manner | highest inhibition | able to inhibit apoptosis in RPE cells in a concentration-dependent manner | did not induce apoptosis |  |
| CCCCC[C@@H](O)/C=C/C=C\C=C\C=C\[C@@H](O)[C@@H](O)CCCC(=O)O (single isomer, unassigned; epimer 15) [lipoxin A4 epimer 15, 15-epi-lipoxin A4] |  | 35% | highest | inhibit IL-1β mediated induction of COX-2 promoter construct in RPE cells in a concentration-dependent manner | highest inhibition | able to inhibit apoptosis in RPE cells in a concentration-dependent manner |  | did not induce apoptosis |
